Measured values: patent publication US10501479B2, “Benzenesulfonyl-asymmetric ureas and medical uses thereof” (HELSINN HEALTHCARE SA, priority 2016, dated 2019)
Several values for one entry are separate records, joined by “and”; a condition that tells them apart may be missing. Equal entries are not always repeated. Structures can show the parent of a compound that is named as a salt.

Legend:
[1] = target: T1, GHSR-1a (HEK293/GHSR1a cell line) (Homo sapiens, UniProt Q92847); assay: Ghrelin antagonist potency (IC50) with calcium FLIPR assay, ghrelin 10 nM; assay type: cell-based; details: ghrelin antagonist potency, read-out: IC50 (Activity)
T1 construct: expressed in transfected cells; host or cells: HEK293/GHSR1a cell line
Procedure: Evaluation of Ghrelin Agonist (EC50) and Antagonist Potency (IC50) with Calcium FLIPR Assay:
The intracellular calcium assay was carried out in a 384-well format FLIPR™ (Molecular Device) HEK293/GHSR1a cell line. Cells were seeded 24 hr prior to the experiments at an optimal density per well. Preincubation with selected calcium dye lasted for 30-60 min at room temperature or 37° C. Test compounds, dissolved in DMSO, were added at the appropriate time and incubated for 15 min followed by the addition of ghrelin with FlexStation or FLIPR. Relative fluorescence was monitored by the FLIPR™ Molecular Device. EC50 and IC50 values were estimated from dose-response data using GraphPad Prism software. To check for GHSR-1a agonism, the compound was added at t=20 sec. and the calcium response was followed for 2 minutes. To check for GHSR-1a antagonism, the compound and Ghrelin (10 nM) were added to the cells at t=20 sec. and the calcium response was measured for 2 minutes. The potency of the antagonist was calculated by its ability to reduce the ghrelin response. Dose-response curves were made for relevant antagonists.

[2] = target: T2, recombinant human ghrelin receptor (HEK293/GRLN) (Homo sapiens, UniProt Q92847); assay: Ghrelin inverse agonist potency (EC50) with IP-1 (IP-One HTRF) assay; assay type: cell-based; details: inverse agonist potency, IP-1 assay; read-out: EC50 (Activity)
T2 construct: expressed in transfected cells
Procedure: Evaluation of Ghrelin Inverse Agonist Potency (EC50) with IP-1 Assay:
HEK293 cells stably expressing recombinant human ghrelin receptor (HEK293/GRLN) were used in the IP-One HTRF assay. One day before the test, cells were seeded at a density of 1.5×10^4/well in a Matrigel® coated 384-well plate with 30 μL of complete Dulbecco's Modified Eagle's Medium and incubated at 37° C. in 5% CO2 for 18-22 hours. On the test day, the medium was removed by centrifugation at 600 rpm for 30 seconds, and 20 μL of stimulation buffer containing 1x tested compound was added with Bravo (Agilent technologies). The plate was then incubated at 37° C. 5% CO2 for 1 hour. After the incubation, 5 μL of IP1-d2 and 5 μL of Tb-Cryp were added to all wells using multidrop Combi(Thermo). After additional incubation at room temperature for 1 hour, the plates were read on Envision with 620 and 665 (Perkin Elmer).

T2 sequence (Q92847 whole entry): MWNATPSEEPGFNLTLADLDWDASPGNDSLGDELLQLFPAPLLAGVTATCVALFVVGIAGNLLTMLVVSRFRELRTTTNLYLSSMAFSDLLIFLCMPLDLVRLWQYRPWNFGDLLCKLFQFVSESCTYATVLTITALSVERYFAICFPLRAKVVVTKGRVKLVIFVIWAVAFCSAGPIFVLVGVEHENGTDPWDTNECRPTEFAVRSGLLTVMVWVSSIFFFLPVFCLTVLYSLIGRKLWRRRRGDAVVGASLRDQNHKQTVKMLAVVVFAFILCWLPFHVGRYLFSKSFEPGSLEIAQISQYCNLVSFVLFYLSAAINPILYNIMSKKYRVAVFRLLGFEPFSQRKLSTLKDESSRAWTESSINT
T1 sequence (Q92847 whole entry): as above

SMILES | IC50 [1] | EC50 [2]
COc1ccc([C@H](C)NC(=O)Nc2ccc(S(=O)(=O)Nc3ccc(CCN)cc3)cc2)c(Cl)c1Cl [H0951, (S)-N-(4-(2-aminoethyl)phenyl)-4-(3-(1-(2,3-dichloro-4-methoxyphenyl)ethyl)ureido) benzenesulfonamide] | 0.0838 µM | 0.0327 µM
Cc1ccc(CS(=O)(=O)c2ccc(NC(=O)N[C@@H](C)c3cccc(Cl)c3Cl)cc2)cc1 [H0964, (S)-1-(1-(2,3-dichlorophenyl)ethyl)-3-(4-((4-methylbenzyl)sulfonyl)phenyl)urea] | 4.17 µM | 2.48 µM
C[C@H](NC(=O)Nc1ccc(S(=O)(=O)Nc2ccc3[nH]ccc3c2)cc1)c1cccc(Cl)c1Cl [H0991, (S)-4-(3-(1-(2,3-dichlorophenyl)ethyl)ureido)-N-(1H-indol-5-yl)benzenesulfonamide] | 0.145 µM | 0.0668 µM
C[C@H](NC(=O)Nc1ccc(S(=O)(=O)Nc2ccc3c(c2)CCNC3)cc1)c1ccc(-c2cnccn2)c(Cl)c1Cl [H1006, (S)-4-(3-(1-(2,3-dichloro-4-(pyrazin-2-yl)phenyl)ethyl)ureido)-N-(1,2,3,4-tetrahydroisoquinolin-6-yl)benzenesulfonamide] | 0.072 µM | 0.0369 µM
C[C@H](NC(=O)Nc1ccc(S(=O)(=O)Cc2ccc3c(c2)CCNC3)cc1)c1ccccc1 [H1028, (S)-1-(1-phenylethyl)-3-(4-(((1,2,3,4-tetrahydroisoquinolin-6-yl)methyl)sulfonyl)phenyl)urea] | 0.414 µM | 0.234 µM
O=C(NCc1ccccc1)Nc1ccc(S(=O)(=O)Cc2ccc3c(c2)CCNC3)cc1 [H1029, 1-benzyl-3-(4-(((1,2,3,4-tetrahydroisoquinolin-6-yl)methyl)sulfonyl)phenyl)urea] | 0.332 µM | 0.188 µM
COc1ccc([C@H](C)NC(=O)Nc2ccc(S(=O)(=O)Nc3ccc4c(c3)CCN(C(C)=O)C4)cc2)c(Cl)c1Cl [H1034, (S)-N-(2-acetyl-1,2,3,4-tetrahydroisoquinolin-6-yl)-4-(3-(1-(2,3-dichloro-4-methoxyphenyl)ethyl)ureido) benzenesulfonamide] | 1.26 µM | 1.61 µM
O=C(NCc1cccc(Cl)c1)Nc1ccc(S(=O)(=O)Cc2ccc3c(c2)CCNC3)cc1 [H1038, 1-(3-chlorobenzyl)-3-(4-(((1,2,3,4-tetrahydroisoquinolin-6-yl)methyl)sulfonyl)phenyl)urea] | 0.376 µM | 0.123 µM
O=C(NCc1cccc(Cl)c1Cl)Nc1ccc(S(=O)(=O)Cc2ccc3c(c2)CCNC3)cc1 [H1040, 1-(2,3-dichlorobenzyl)-3-(4-(((1,2,3,4-tetrahydroisoquinolin-6-yl)methyl)sulfonyl)phenyl)urea] | 0.0318 µM | 0.164 µM
CC(NC(=O)Nc1ccc(S(=O)(=O)Cc2ccc3c(c2)CCNC3)cc1)c1ccccc1Cl (centres unmarked) [H1041, 1-(1-(2-chlorophenyl)ethyl)-3-(4-(((1,2,3,4-tetrahydroisoquinolin-6-yl)methyl)sulfonyl)phenyl)urea] | 0.0174 µM | 0.0555 µM
CC(NC(=O)Nc1ccc(S(=O)(=O)Cc2ccc3c(c2)CCNC3)cc1)c1cccc(Cl)c1 (centres unmarked) [H1042, 1-(1-(3-chlorophenyl)ethyl)-3-(4-(((1,2,3,4-tetrahydroisoquinolin-6-yl)methyl)sulfonyl)phenyl)urea] | 0.0366 µM | 0.122 µM
O=C(NCc1cccc(Cl)c1Cl)Nc1ccc(S(=O)(=O)Cc2ccc3c(c2)CNCC3)cc1 [H1044, 1-(2,3-dichlorobenzyl)-3-(4-(((1,2,3,4-tetrahydroisoquinolin-7-yl)methyl)sulfonyl)phenyl)urea] | 0.0531 µM | 0.143 µM
C[C@H](NC(=O)Nc1ccc(S(=O)(=O)Cc2ccc3c(c2)CCN3)cc1)c1cccc(Cl)c1Cl [H1047, (S)-1-(1-(2,3-dichlorophenyl)ethyl)-3-(4-((indolin-5-ylmethyl)sulfonyl)phenyl)urea] | 0.865 µM | 1.16 µM
C[C@H](NC(=O)Nc1ccc(S(=O)(=O)Nc2ccc3c(c2)CNCC3)cc1)c1cccc(Cl)c1Cl [H1049, (S)-4-(3-(1-(2,3-dichlorophenyl)ethyl)ureido)-N-(1,2,3,4-tetrahydroisoquinolin-7-yl)benzenesulfonamide] | 0.0163 µM | 0.0296 µM
C[C@H](NC(=O)Nc1ccc(S(=O)(=O)Nc2ccc(CN)cc2)cc1)c1cccc(Cl)c1Cl [H1050, (S)-N-(4-(aminomethyl)phenyl)-4-(3-(1-(2,3-dichlorophenyl)ethyl)ureido) benzenesulfonamide] | 0.0574 µM | 0.109 µM
C[C@H](NC(=O)Nc1ccc(S(=O)(=O)Cc2ccc(CN)cc2)cc1)c1cccc(Cl)c1Cl [H1051, (S)-1-(4-((4-(aminomethyl)benzyl)sulfonyl)phenyl)-3-(1-(2,3-dichlorophenyl)ethyl)urea] | 0.0537 µM | 0.116 µM
CCOC(=O)N1CCc2cc(CS(=O)(=O)c3ccc(NC(=O)N[C@@H](C)c4cccc(Cl)c4Cl)cc3)ccc2C1 [H1055, ethyl (S)-6-(((4-(3-(1-(2,3-dichlorophenyl)ethyl)ureido)phenyl)sulfonyl)methyl)-3,4-dihydroisoquinoline-2(1H)-carboxylate] | 4.47 µM | 0.516 µM
C[C@H](NC(=O)Nc1ccc(S(=O)(=O)Cc2ccc3c(c2)CCN(Cc2ccccc2)C3)cc1)c1cccc(Cl)c1Cl [H1072, (S)-1-(4-(((2-benzyl-1,2,3,4-tetrahydroisoquinolin-6-yl)methyl)sulfonyl)phenyl)-3-(1-(2,3-dichlorophenyl)ethyl)urea] | 0.123 µM | 0.0219 µM
C[C@H](NC(=O)Nc1ccc(S(=O)(=O)Nc2ccc(C(C)(C)N)cc2)cc1)c1cccc(Cl)c1Cl [H1074, (S)-N-(4-(2-aminopropan-2-yl)phenyl)-4-(3-(1-(2,3-dichlorophenyl)ethyl)ureido) benzenesulfonamide] | 3.25 µM | 0.657 µM
C[C@H](NC(=O)Nc1ccc(S(=O)(=O)Cc2cccc(CO)c2)cc1)c1cccc(Cl)c1Cl [H1088, (S)-1-(1-(2,3-dichlorophenyl)ethyl)-3-(4-((3-(hydroxymethyl)benzyl)sulfonyl)phenyl)urea] | 7.97 µM | 0.367 µM
COCc1ccc(CS(=O)(=O)c2ccc(NC(=O)N[C@@H](C)c3cccc(Cl)c3Cl)cc2)cc1 [H1093, (S)-1-(1-(2,3-dichlorophenyl)ethyl)-3-(4-((4-(methoxymethyl)benzyl)sulfonyl)phenyl)urea] | 2.38 µM | 0.327 µM
C[C@H](NC(=O)Nc1ccc(S(=O)(=O)Cc2ccc3c(c2)COCC3)cc1)c1cccc(Cl)c1Cl [H1097, (S)-1-(1-(2,3-dichlorophenyl)ethyl)-3-(4-((isochroman-7-ylmethyl)sulfonyl)phenyl)urea] | 1.97 µM | 0.363 µM
C[C@H](NC(=O)Nc1ccc(S(=O)(=O)Cc2ccc3c(c2)COC3)cc1)c1cccc(Cl)c1Cl [H1098, (S)-1-(1-(2,3-dichlorophenyl)ethyl)-3-(4-(((1,3-dihydroisobenzofuran-5-yl)methyl)sulfonyl)phenyl)urea] | 12.1 µM | 0.649 µM
C[C@H](NC(=O)Nc1ccc(S(=O)(=O)Cc2ccc(O)cc2)cc1)c1cccc(Cl)c1Cl [H1099, (S)-1-(1-(2,3-dichlorophenyl)ethyl)-3-(4-((4-hydroxybenzyl)sulfonyl)phenyl)urea] | 8.67 µM | 1.14 µM
CC(c1ccc2c(c1)CCNC2)S(=O)(=O)c1ccc(NC(=O)N[C@@H](C)c2cccc(Cl)c2Cl)cc1 (stereo partly drawn) [H1102, 1-((S)-1-(2,3-dichlorophenyl)ethyl)-3-(4-((1-(1,2,3,4-tetrahydroisoquinolin-6-yl)ethyl)sulfonyl)phenyl)urea hydrochloride] | 0.0739 µM | 0.0583 µM and 0.0216 µM
CC(c1ccc2c(c1)CCNC2)S(=O)(=O)c1ccc(NC(=O)N[C@@H](C)c2cccc(Cl)c2Cl)cc1 (stereo partly drawn) [H1103, 1-((S)-1-(2,3-dichlorophenyl)ethyl)-3-(4-((1-(1,2,3,4-tetrahydroisoquinolin-6-yl)ethyl)sulfonyl)phenyl)urea hydrochloride] | 0.487 µM | 0.066 µM
C[C@H](NC(=O)Nc1ccc(S(=O)(=O)Nc2ccc3[nH]ncc3c2)cc1)c1cccc(Cl)c1Cl [H1106, (S)-4-(3-(1-(2,3-dichlorophenyl)ethyl)ureido)-N-(1H-indazol-5-yl) benzenesulfonamide] | 1.43 µM | 0.862 µM
C[C@H](NC(=O)Nc1ccc(S(=O)(=O)Nc2ccc(-c3cnc[nH]3)cc2)cc1)c1cccc(Cl)c1Cl [H1109, (S)-N-(4-(1H-imidazol-5-yl)phenyl)-4-(3-(1-(2,3-dichlorophenyl)ethyl)ureido) benzenesulfonamide] | 0.427 µM | 0.136 µM
